pIC50: −log10 of the molar value.
Experiments:
SD rats = assay: Long-term toxicity assay, SD rats; format: in vivo; settings: 3 mg/kg x 0.162 x 60 kg
Text: Shanghai Haihe Biopharma Co., Ltd. Protocol No.: CYH33-101, Version: 5.0 […]
in hepatocytes was sign ificantly higher in dogs than in other species. The extent of hydrolytic metabolism of amide bonds in monk ey hepatocytes was low, but the extent of oxidative metabolism (M5, M6) was higher than that in other animal species. Oxidative metabolites of CYH33 were not detected in hum an hepatocytes, so th e metabolic effect of oxidative metabolic enzymes in human liver on C YH33 was not evaluated. The liver and intestine homogenates of dogs were collected, confirming that the amide hydrolysis of CYH33 was mainly catalyzed by carboxylesterase in liver. […]
transport across Caco-2 cells in the concentration range of 2.00 - 10.0 µM.
For detailed results of nonclinical pharmacokinetic and product metabol ism studies of […]
1.2.3 Results of Nonclinical Toxicological Study […]
tidal volume (TV), respiratory volume (MV) per minute and frequency of respiration (Rf) […]
on the central n ervous system (CNS) noticed.
The acute toxicity assay confirmed that the MTD was ≥ 600 mg/kg in SD rats, and the maximum tolerated dose (MTD) was >120 mg/kg in beagle dogs. The long-term toxicity […]
were greater than those in males, and the highest non-severely toxic dose (HNSTD) was 8 mg/kg in males and 3 mg/kg in females. […]

PI3Kα and its mutants = system: PI3Kα and its mutants; design: method as in PMID 33109399; settings: read-out: IC50 range; cited from earlier work
PI3Kβ, PI3Kδ, and PI3Kγ = system: PI3Kβ, PI3Kδ, and PI3Kγ; design: method as in PMID 33109399; settings: read-out: IC50 range; cited from earlier work
[1] = system: EC104 esophageal cancer PDX; design: method as in Investigator's Brochure (IB) 12; settings: 12.5 mg/kg oral for 21 days; ref Investigator's Brochure (IB) 12; cited from earlier work
[2] = system: phosphorylation of Akt and rpS6; design: method as in Investigator's Brochure (IB) 12; settings: ref Investigator's Brochure (IB) 12, cited from earlier work
[3] = design: method as in Investigator's Brochure (IB) 12; settings: ref Investigator's Brochure (IB) 12, cited from earlier work
CYP1A2 = system: CYP1A2; design: method as in Investigator's Brochure (IB) 12; settings: up to 100 µM; ref Investigator's Brochure (IB) 12; cited from earlier work
Beagle dogs = system: Beagle dogs; design: method as in Investigator's Brochure (IB) 12; settings: species wording unclear (Beagle dogs / rats); ref Investigator's Brochure (IB) 12; cited from earlier work

COC(=O)Nc1cc(C(F)(F)F)c(-c2nc(N3CCOCC3)c3cc(CN4CCN(S(C)(=O)=O)CC4)cn3n2)cn1 [CYH33, methyl (5-(6-((4-(methylsulfonyl)piperazin-1-yl)methyl)−4-morpholinopyrrolo[2,1-f][1,2,4]triazin-2-yl)−4-(trifluoromethyl)pyridin-2-yl)carbamate]
human equivalent dose (HED) of long-term HNSTD of rats (females), critical toxic dose (SD rats): about 30 mg | pIC50 (PI3Kα and its mutants): 7.70 to 8.30 | pIC50 (PI3Kβ, PI3Kδ, and PI3Kγ): 6.21 to 7.37 | T/C ratio [1]: approximately 30% | time of peak concentration in tumor tissues ([2]; single dose 12.5, 25, 50 mg/kg): 2 h | phosphorylation of Akt and rpS6 in tumor tissues ([2]; single dose, at 0.25 h (25, 50 mg/kg) or 0.5 h (12.5 mg/kg), recovered after 8 h): down-regulate | exposure in tissues relative to plasma ([3]; liver, adrenal gland, digestive tract, pancreas, kidney, spleen, ovaries): more than 4 times | concentration of parent drug at 72 h after administration relative to peak concentration [3]: 0.5% | distribution into the red blood cells [3]: basically not distributed | exposure in brain tissue relative to plasma [3]: approximately 20% | exposure in tissues, female rats relative to male rats (higher) [3]: 7 - 18 fold | inhibition of CYP1A2 (CYP1A2): did not inhibit | arrhythmia, ECG, blood pressure and body temperature parameters (Beagle dogs): no drug-related arrhythmia or changes

Reference: article PMC9669016, “First-in-human phase Ia study of the PI3Kα inhibitor CYH33 in patients with solid tumors” (Nature Communications, 2022)
